According to patent publication US20060063932A1, “Aminoalkylpyrrolidine serotonin receptor ligands and compositions, their pharmaceutical uses, and methods for their synthesis” (priority 2000, published 2006):
Read-outs that look alike come from different tables or passages of the source.

What was measured:
human 5-HT2a receptors = human 5-HT2a receptors (Homo sapiens, UniProt P28223); assay: Competition radioligand binding, h5-HT2a ([3H]Ketanserin)
Description: The 5-HT receptor binding properties of the compounds are identified by competitive radioligand binding assays wherein membranes prepared from transfected cells expressing the 5-HT receptor subtype of interest. “Binding constants” refers herein to Ki values measured by inhibition of the binding of radiolabelled ligands that are selective for the 5-HT receptor type being studied.
(§1) Cell pellets were homogenized in approximately 50 mL of homogenization buffer (buffer A) containing: 50 mM Tris (pH 7.4), 2 mM EGTA, 0.32 M sucrose, 10 μM PMSF, 1 μg/mL leupeptin, 5 μg/mL Pepstatin A, and 5 μg/mL aprotinin using an UltraTurax homogenizer (Tekmar Company, Cincinnati, Ohio) at 80% maximum setting three times for 10 sec. Cell pellets were centrifuged at 4° C. at 1,500×g for 10 min in a Beckman GS-6R centrifuge. Pellets were resuspended in buffer A, homogenized and centrifuged as described above. Pooled supernatants were transferred to centrifuge bottles and centrifuged at 4° C. at 20,000×g for 30 min in a Beckman J2-HS centrifuge. Cell pellets were resuspended in buffer A and were centrifuged at 4° C. at 20,000×g for 30 min. Cell pellets were resuspended in buffer A and stored at −70° C. in aliquots of 2.5 mg/mL total membrane protein. Total membrane protein was assessed utilizing a BCA kit (Pierce; Rockford, Ill.).
(§2) Filters were washed three times with ice-cold phosphate-buffered saline (PBS) wash buffer containing 50 mM NaPO4 (pH 7.4), 0.9% NaCl, 2 mM MgCl2 and 0.02% NaN3. The filters were then counted using liquid scintillation in a Packard Topcount scintillation counter.
(§3) Data Analysis: Radioligand binding experiments were analyzed with Prism™ (GraphPad, San Diego, Calif.), a computer graphics and statistics program. IC50 values and Hill slopes for compounds were generated by nonlinear regression using Prism™.

[1] = biological target: human D2S dopamine (hD2S-DA) receptors (Homo sapiens, UniProt P14416); assay: Competition radioligand binding, hD2s DA ([3H]Spiperone)
human D2S dopamine (hD2S-DA) receptors, sequence (P14416 1-414 isoform P14416-2): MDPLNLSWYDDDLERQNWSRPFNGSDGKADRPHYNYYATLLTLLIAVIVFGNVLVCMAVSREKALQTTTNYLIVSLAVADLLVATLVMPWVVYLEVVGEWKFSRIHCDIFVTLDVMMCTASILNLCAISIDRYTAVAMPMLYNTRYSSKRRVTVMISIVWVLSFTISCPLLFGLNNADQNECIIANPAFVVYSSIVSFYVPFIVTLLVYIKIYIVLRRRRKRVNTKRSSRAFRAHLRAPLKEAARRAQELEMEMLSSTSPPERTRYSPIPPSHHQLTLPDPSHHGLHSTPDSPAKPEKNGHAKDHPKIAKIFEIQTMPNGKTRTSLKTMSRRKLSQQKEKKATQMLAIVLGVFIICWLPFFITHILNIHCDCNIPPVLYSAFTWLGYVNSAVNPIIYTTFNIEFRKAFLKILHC
Description: as §1, §2, §3

[2] = biological target: T1, human 5-HT6 (h5-HT6) receptors (Homo sapiens, UniProt P50406); assay: Competition radioligand binding, h5-HT6 ([3H]LSD); settings: membranes of HEK-293 cells, 1 hr RT
T1 construct: purchased Receptor Biology, Inc. (Beltsville, Md.); host or cells: HEK-293 cells
T1 sequence (P50406 whole entry): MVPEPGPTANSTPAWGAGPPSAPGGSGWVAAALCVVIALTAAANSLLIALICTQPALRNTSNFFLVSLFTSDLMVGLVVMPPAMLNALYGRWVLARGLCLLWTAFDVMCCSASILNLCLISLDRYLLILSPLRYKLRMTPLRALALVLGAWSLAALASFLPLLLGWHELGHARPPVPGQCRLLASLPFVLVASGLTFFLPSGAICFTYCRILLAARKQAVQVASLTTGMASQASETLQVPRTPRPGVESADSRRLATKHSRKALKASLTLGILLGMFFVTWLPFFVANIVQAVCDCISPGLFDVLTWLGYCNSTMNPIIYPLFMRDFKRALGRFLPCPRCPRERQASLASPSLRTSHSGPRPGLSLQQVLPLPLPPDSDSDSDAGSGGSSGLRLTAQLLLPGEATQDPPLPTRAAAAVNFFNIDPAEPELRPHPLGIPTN

[3] = biological target: T2, human 5-HT7B (h5-HT7b) receptors (Homo sapiens, UniProt P34969); assay: Competition radioligand binding, h5-HT7b ([3H]5-CT); settings: membranes of HEK 293 cells, 2 hr 37° C., read-out: Ki (nM) 5-HT7
T2 construct: expressed in transfected cells
T2 sequence (P34969 1-432 limits assumed): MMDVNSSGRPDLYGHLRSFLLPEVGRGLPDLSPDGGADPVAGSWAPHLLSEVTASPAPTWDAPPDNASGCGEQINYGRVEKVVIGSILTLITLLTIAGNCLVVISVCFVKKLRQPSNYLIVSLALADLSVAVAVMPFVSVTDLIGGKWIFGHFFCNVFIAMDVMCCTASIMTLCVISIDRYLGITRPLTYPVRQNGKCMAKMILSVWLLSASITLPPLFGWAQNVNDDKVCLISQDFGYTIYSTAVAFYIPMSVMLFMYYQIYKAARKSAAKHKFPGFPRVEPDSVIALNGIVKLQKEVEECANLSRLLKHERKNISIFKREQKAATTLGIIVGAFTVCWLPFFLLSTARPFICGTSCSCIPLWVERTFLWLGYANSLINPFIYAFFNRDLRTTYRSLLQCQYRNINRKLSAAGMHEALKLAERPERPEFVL

human 5-HT1a receptors = biological target: T3, human 5-HT1a receptors (Homo sapiens, UniProt P08908); assay: Competition radioligand binding, h5-HT1a ([3H]5-CT); settings: membranes of CHO K1 cells, 1 hr RT
T3 construct: expressed in transfected cells; host or cells: CHO K1 cells
T3 sequence (P08908 1-422): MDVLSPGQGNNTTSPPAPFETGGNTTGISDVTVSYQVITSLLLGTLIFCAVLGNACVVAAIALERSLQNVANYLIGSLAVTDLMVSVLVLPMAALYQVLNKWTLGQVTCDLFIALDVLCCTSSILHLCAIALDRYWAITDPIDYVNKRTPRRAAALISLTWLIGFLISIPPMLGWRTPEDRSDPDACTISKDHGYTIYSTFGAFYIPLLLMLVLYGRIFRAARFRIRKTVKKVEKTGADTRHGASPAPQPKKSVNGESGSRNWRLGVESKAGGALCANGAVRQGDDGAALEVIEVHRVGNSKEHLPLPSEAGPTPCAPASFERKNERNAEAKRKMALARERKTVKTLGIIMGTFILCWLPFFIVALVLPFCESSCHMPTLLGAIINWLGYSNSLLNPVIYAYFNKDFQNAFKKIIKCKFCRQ

[4] = read-out: Ki (nM) 5-HT2A, membranes of CHO K1 cells, [3H]Ketanserin, 1 hr 37° C.
[5] = read-out: Ki (nM) D2, membranes of A9 L cells, [3H]Spiperone, 2 hr RT

human 5-HT2a receptors, sequence (P28223 whole entry): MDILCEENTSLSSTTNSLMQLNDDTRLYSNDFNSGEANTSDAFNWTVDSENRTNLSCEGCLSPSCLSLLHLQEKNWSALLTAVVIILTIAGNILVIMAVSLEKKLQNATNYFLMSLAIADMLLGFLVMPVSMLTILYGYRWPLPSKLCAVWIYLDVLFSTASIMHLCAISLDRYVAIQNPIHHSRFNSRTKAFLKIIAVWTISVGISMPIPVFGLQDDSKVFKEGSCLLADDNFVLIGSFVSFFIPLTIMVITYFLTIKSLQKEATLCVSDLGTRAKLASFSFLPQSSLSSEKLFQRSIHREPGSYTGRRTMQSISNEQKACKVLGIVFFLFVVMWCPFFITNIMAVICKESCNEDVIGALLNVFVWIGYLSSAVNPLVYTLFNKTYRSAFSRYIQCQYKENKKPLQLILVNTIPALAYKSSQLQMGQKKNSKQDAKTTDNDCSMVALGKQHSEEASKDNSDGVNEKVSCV

Row | Compound | Ki (human 5-HT2a receptors) | Ki [1] | Ki [2] | Ki [3] | Ki (human 5-HT1a receptors) | Ki (human 5-HT2a receptors; [4]) | Ki [1, 5]
1 | CN1CCCC1CCN(Cc1cccc(O)c1)Cc1cccc(O)c1 (racemic) [Example 3] | 2000 nM | > 2500 nM | 2640 nM | 49 nM | – | – | –
2 | Cc1ccc(CN(CCC2CCCN2C)Cc2ccc(C)cc2)cc1 (racemic) [Example 4] | 20 nM | 110 nM | 41 nM | 9.9 nM | – | – | –
3 | CN1CCCC1CCN(Cc1ccc(Cl)cc1)Cc1ccc(Cl)cc1 (racemic) [Example 5] | 39 nM | – | 42 nM | 4.7 nM | 540 nM | – | –
4 | CN1CCCC1CCN(CCc1ccccc1)CCc1ccccc1 (racemic) [Example 8] | – | – | – | 3200 nM | – | – | –
5 | CN1CCCC1CCN(Cc1ccccc1)Cc1ccccc1 (racemic) [Example 12] | – | 360 nM | 74 nM | 24 nM | – | – | –
6 | CN1CCC[C@H]1CCN(Cc1cccc(O)c1)Cc1cccc(O)c1 [Example 2, (S)-Di-(3-hydroxybenzyl)-2-aminoethyl-N-methylpyrrolidine] | – | – | 640 nM | 9.7 nM | 3500 nM | 500 nM | > 2500 nM
7 | Cc1ccc(CN(CC[C@H]2CCCN2C)Cc2ccc(C)cc2)cc1 [Example 6] | 29 nM | 200 nM | 53 nM | 80 nM | 1780 nM | – | –
8 | Cc1ccc(CN(CC[C@@H]2CCCN2C)Cc2ccc(C)cc2)cc1 [Example 7] | 17 nM | 221 nM | 63 nM | 2.1 nM | 2850 nM | – | –
9 | CN1CCC[C@H]1CCN(Cc1cccc(C(N)=O)c1)Cc1cccc(C(N)=O)c1 [Example 9] | – | – | – | 5100 nM | – | – | –
10 | CN1CCC[C@@H]1CCN(Cc1cccc(O)c1)Cc1cccc(O)c1 [Example 10] | – | – | – | 1000 nM | – | – | –
11 | CN1CCC[C@H]1CCN(Cc1ccc(O)cc1)Cc1cccc(O)c1 [Example 20] | 540 nM | > 2500 nM | 880 nM | 8.8 nM | > 4000 nM | – | –
12 | Cc1ccc(CN(CC[C@@H]2CCCN2C)Cc2ccccc2)cc1 [Example 22] | 44 nM | 220 nM | 39 nM | 8.3 nM | > 4000 nM | – | –
13 | CN1CCCC1CCN(Cc1ccccc1)Cc1c(Cl)cccc1Cl (stereo not shown) [Example 23] | 16 nM | 160 nM | 47 nM | 28 nM | > 4000 nM | – | –
14 | Cc1ccc(C)c(CN(CCC2CCCN2C)Cc2ccccc2)c1 (stereo not shown) [Example 24] | 20 nM | 410 nM | 72 nM | 31 nM | > 4000 nM | – | –
15 | CN1CCCC1CCN(Cc1ccccc1)Cc1cccc2ccccc12 (stereo not shown) [Example 25] | 87 nM | 570 nM | 99 nM | 45 nM | > 4000 nM | – | –
16 | CN1CCCC1CCN(Cc1ccccc1)Cc1ccc(F)cc1 (stereo not shown) [Example 26] | – | 400 nM | 20 nM | 18 nM | – | – | –
17 | CSc1ccc(CN(CCC2CCCN2C)Cc2ccccc2)cc1 (stereo not shown) [Example 27] | – | – | – | 150 nM | – | – | –
18 | CCc1ccc(CN(CCC2CCCN2C)Cc2ccccc2)cc1 (stereo not shown) [Example 28] | 73 nM | 270 nM | 91 nM | 19 nM | > 4000 nM | – | –
19 | CN1CCCC1CCN(Cc1ccccc1)Cc1cccc(O)c1 (stereo not shown) [Example 29] | 69 nM | 1010 nM | 33 nM | 23 nM | > 4000 nM | – | –
20 | Cc1cccc(CN(CCC2CCCN2C)Cc2ccccc2)c1 (stereo not shown) [Example 30] | 60 nM | 660 nM | 53 nM | 20 nM | > 4000 nM | – | –
21 | CN1CCCC1CCN(Cc1ccccc1)Cc1ccc(C(C)(C)C)cc1 (stereo not shown) [Example 31] | 130 nM | 1210 nM | 45 nM | 66 nM | – | – | –
22 | CC(C)c1ccc(CN(CCC2CCCN2C)Cc2ccccc2)cc1 (stereo not shown) [Example 32] | 11 nM | 850 nM | 71 nM | 36 nM | – | – | –
23 | COc1cccc(CN(CCC2CCCN2C)Cc2ccccc2)c1 (stereo not shown) [Example 33] | 51 nM | 780 nM | 35 nM | 56 nM | > 4000 nM | – | –

Row | Compound | Ki (human 5-HT2a receptors) | Ki [1] | Ki [2] | Ki [3] | Ki (human 5-HT1a receptors) | Ki (human 5-HT2a receptors; [4]) | Ki [1, 5]
24 | CN1CCC[C@H]1CCN(Cc1cccc(O)c1)Cc1ccc2ccccc2c1 [Example 34] | 61 nM | 1750 nM | 315 nM | 8.6 nM | 825 nM | – | –
25 | Cc1cc(CN(CC[C@@H]2CCCN2C)Cc2cccc(O)c2)cc(C)c1O [Example 35] | 3470 nM | > 2500 nM | 2710 nM | 17 nM | > 4000 nM | – | –
26 | COc1ccc(CN(CC[C@@H]2CCCN2C)Cc2cccc(O)c2)cc1 [Example 36] | 200 nM | 2530 nM | 1580 nM | 49 nM | > 4000 nM | – | –
27 | CN1CCC[C@H]1CCN(Cc1ccc(C(C)(C)C)cc1)Cc1cccc(O)c1 [Example 37] | 160 nM | 2300 nM | 375 nM | 66 nM | > 4000 nM | – | –
28 | CN1CCC[C@H]1CCN(CCc1ccccc1)Cc1ccc(Cl)cc1 [Example 38] | – | – | – | 200 nM | – | – | –
29 | CN1CCC[C@H]1CCN(Cc1ccc(Cl)cc1)Cc1ccc(O)cc1Cl [Example 39] | 85 nM | 420 nM | 49 nM | 0.91 nM | 3920 nM | – | –
30 | CSc1ccc(CN(CC[C@@H]2CCCN2C)Cc2ccc(Cl)cc2)cc1 [Example 40] | 23 nM | 1110 nM | 132 nM | 6.5 nM | > 4000 nM | – | –
31 | COc1cccc(CN(CC[C@@H]2CCCN2C)Cc2ccc(Cl)cc2)c1 [Example 41] | 39 nM | 1480 nM | 83 nM | 6.6 nM | > 4000 nM | – | –
32 | Cc1cc(CN(CC[C@@H]2CCCN2C)Cc2ccc(Cl)cc2)oc1C [Example 42] | 88 nM | > 2500 nM | 54 nM | 21 nM | > 4000 nM | – | –
33 | CN1CCC[C@H]1CCN(Cc1ccc(Cl)cc1)CC1CC=CCC1 (stereo partly shown) [Example 43] | – | – | – | 180 nM | – | – | –
34 | CN1CCC[C@H]1CCN(Cc1ccc(Cl)cc1)Cc1ccccc1Cl [Example 44] | – | – | – | 260 nM | – | – | –
35 | CN1CCC[C@H]1CCN(Cc1ccc(Cl)cc1)Cc1ccc2c(c1)Cc1ccccc1-2 [Example 45] | 27 nM | 250 nM | 38 nM | 12 nM | > 4000 nM | – | –
36 | CC(C)c1ccc(CN(CC[C@@H]2CCCN2C)Cc2ccc(Cl)cc2)cc1 [Example 46] | 42 nM | 1110 nM | 350 nM | 80 nM | 3850 nM | – | –
37 | CN1CCC[C@H]1CCN(Cc1ccc(Cl)cc1)Cc1ccc(O)c(Cl)c1 [Example 47] | 180 nM | 1010 nM | 110 nM | 2.7 nM | > 4000 nM | – | –
38 | Cc1cc(CN(CC[C@@H]2CCCN2C)Cc2ccc(Cl)cc2)cc(C)c1O [Example 48] | 233 nM | > 2500 nM | 71 nM | 4.2 nM | 3070 nM | – | –
39 | CN1CCC[C@H]1CCN(Cc1ccc(O)cc1)Cc1ccc(Cl)cc1 [Example 49] | 148 nM | 1310 nM | 177 nM | 1.9 nM | > 4000 nM | – | –
40 | COc1cc(CN(CC[C@@H]2CCCN2C)Cc2ccc(Cl)cc2)ccc1O [Example 50] | 180 nM | > 2500 nM | 280 nM | 3.2 nM | > 4000 nM | – | –
41 | CN1CCC[C@H]1CCN(Cc1ccc(Cl)cc1)Cc1ccc(O)c([N+](=O)[O-])c1 [Example 51] | – | – | – | 200 nM | – | – | –
42 | Cc1c(CN(CC[C@@H]2CCCN2C)Cc2ccc(Cl)cc2)sc2ccccc12 [Example 52] | 76 nM | 1110 nM | 310 nM | 27 nM | > 4000 nM | – | –
43 | C[C@H](CN(CC[C@@H]1CCCN1C)Cc1ccc(Cl)cc1)c1ccccc1 [Example 53] | – | – | – | 161 nM | – | – | –
44 | CCN1CCC[C@H]1CCN(Cc1ccc(C)cc1)Cc1ccc(C)cc1 [Example 54, (S)-Di-(4-methylbenzyl)aminoethyl-N-ethylpyrrolidine] | – | – | 300 nM | 63 nM | 610 nM | 56 nM | 380 nM
45 | CN1CCC[C@H]1CN(Cc1ccccc1)Cc1ccccc1 [Example 55, (S)-Di-(benzyl)-2-aminomethyl-N-methylpyrrolidine] | – | – | – | 170 nM | – | – | –
46 | (S)-(3-Hydroxybenzyl)(4-chlorobenzyl)-2-aminoethyl-N-methylpyrrolidine [Example 19] | – | – | 210 nM | 2.7 nM | > 4000 nM | 74 nM | 1580 nM
